pIC50: −log10 of the molar value.
Tests used:
hSCN3A = molecular target: T1, hSCN3A (Homo sapiens, UniProt Q9NY46); assay: Whole-cell patch-clamp electrophysiology (conventional or PatchXpress), HEK cells expressing hSCN3A, estimated IC-50; type: cell-based; details: estimated IC-50, HEK cells expressing hSCN3A; class symbols or bounds; read-out: SCN3A EIC-50
T1 construct: expressed in transfected cells
Procedure, shortened: (§1)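 Stably transfected HEK cells recorded by whole-cell voltage clamp (manual or PatchXpress) at 22–24 °C in pH 7.4 HEPES-buffered extracellular solution. Cells held at the empirically determined inactivation V1/2 after an 8 s prepulse, then stepped to 0 mV for 20 ms; % inhibition from current amplitude before vs after compound.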

hSCN9A = molecular target: T2, hSCN9A (Homo sapiens, UniProt Q15858); assay: Whole-cell patch-clamp electrophysiology (conventional or PatchXpress), HEK cells expressing hSCN9A, estimated IC-50; type: cell-based; details: estimated IC-50, HEK cells expressing hSCN9A; class symbols or bounds; read-out: SCN9A EIC-50
T2 construct: expressed in transfected cells
T2 sequence (Q15858 whole entry): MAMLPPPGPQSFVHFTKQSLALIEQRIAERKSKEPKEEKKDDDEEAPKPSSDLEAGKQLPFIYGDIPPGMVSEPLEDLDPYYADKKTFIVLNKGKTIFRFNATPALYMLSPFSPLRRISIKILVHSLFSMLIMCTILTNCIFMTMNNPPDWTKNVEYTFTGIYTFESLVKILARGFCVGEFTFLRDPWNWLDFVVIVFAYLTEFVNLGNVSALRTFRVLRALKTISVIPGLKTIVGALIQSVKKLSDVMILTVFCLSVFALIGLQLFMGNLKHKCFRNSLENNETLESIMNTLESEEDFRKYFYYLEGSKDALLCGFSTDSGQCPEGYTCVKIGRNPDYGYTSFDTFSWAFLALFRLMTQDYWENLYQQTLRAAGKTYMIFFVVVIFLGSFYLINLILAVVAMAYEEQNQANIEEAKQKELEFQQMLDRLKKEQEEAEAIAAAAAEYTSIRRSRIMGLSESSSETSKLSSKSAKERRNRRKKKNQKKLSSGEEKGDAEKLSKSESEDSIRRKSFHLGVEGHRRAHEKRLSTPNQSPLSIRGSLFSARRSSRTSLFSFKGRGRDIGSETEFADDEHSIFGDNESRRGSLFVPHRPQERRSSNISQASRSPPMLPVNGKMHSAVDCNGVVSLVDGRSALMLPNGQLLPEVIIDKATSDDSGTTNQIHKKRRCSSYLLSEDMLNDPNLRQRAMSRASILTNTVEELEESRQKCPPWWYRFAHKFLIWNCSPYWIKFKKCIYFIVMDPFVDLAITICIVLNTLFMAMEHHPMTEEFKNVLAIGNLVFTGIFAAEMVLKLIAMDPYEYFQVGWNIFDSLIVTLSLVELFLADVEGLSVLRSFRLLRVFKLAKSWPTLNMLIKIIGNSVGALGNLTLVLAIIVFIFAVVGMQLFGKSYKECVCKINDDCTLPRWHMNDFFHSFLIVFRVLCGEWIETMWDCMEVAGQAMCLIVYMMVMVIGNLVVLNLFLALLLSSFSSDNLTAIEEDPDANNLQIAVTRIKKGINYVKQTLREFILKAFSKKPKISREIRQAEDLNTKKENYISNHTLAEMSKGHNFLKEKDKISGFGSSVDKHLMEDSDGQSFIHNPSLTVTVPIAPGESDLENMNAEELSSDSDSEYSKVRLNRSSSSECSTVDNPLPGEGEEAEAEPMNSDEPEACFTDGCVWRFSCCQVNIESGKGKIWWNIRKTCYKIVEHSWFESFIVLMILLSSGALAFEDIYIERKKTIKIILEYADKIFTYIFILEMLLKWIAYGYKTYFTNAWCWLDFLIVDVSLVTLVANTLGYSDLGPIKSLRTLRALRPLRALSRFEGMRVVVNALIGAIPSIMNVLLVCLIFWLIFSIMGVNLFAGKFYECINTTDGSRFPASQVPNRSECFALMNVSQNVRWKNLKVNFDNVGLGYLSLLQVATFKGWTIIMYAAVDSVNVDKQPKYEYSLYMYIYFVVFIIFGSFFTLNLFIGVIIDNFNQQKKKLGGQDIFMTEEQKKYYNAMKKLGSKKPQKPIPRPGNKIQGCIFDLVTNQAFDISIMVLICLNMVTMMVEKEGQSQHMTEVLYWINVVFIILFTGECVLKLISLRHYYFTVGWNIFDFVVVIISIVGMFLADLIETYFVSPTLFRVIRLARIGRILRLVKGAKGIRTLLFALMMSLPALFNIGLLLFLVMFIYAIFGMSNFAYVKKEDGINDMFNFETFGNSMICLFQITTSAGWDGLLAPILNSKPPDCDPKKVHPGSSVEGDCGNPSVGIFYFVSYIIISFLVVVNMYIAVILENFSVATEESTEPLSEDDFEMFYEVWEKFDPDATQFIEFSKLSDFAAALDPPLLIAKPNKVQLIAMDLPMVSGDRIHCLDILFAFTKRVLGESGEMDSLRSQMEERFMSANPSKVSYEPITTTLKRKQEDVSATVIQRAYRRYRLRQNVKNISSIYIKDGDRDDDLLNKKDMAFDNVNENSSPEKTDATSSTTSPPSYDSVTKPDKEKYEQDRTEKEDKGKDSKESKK
Procedure, shortened: as §1

T1 sequence (Q9NY46 whole entry): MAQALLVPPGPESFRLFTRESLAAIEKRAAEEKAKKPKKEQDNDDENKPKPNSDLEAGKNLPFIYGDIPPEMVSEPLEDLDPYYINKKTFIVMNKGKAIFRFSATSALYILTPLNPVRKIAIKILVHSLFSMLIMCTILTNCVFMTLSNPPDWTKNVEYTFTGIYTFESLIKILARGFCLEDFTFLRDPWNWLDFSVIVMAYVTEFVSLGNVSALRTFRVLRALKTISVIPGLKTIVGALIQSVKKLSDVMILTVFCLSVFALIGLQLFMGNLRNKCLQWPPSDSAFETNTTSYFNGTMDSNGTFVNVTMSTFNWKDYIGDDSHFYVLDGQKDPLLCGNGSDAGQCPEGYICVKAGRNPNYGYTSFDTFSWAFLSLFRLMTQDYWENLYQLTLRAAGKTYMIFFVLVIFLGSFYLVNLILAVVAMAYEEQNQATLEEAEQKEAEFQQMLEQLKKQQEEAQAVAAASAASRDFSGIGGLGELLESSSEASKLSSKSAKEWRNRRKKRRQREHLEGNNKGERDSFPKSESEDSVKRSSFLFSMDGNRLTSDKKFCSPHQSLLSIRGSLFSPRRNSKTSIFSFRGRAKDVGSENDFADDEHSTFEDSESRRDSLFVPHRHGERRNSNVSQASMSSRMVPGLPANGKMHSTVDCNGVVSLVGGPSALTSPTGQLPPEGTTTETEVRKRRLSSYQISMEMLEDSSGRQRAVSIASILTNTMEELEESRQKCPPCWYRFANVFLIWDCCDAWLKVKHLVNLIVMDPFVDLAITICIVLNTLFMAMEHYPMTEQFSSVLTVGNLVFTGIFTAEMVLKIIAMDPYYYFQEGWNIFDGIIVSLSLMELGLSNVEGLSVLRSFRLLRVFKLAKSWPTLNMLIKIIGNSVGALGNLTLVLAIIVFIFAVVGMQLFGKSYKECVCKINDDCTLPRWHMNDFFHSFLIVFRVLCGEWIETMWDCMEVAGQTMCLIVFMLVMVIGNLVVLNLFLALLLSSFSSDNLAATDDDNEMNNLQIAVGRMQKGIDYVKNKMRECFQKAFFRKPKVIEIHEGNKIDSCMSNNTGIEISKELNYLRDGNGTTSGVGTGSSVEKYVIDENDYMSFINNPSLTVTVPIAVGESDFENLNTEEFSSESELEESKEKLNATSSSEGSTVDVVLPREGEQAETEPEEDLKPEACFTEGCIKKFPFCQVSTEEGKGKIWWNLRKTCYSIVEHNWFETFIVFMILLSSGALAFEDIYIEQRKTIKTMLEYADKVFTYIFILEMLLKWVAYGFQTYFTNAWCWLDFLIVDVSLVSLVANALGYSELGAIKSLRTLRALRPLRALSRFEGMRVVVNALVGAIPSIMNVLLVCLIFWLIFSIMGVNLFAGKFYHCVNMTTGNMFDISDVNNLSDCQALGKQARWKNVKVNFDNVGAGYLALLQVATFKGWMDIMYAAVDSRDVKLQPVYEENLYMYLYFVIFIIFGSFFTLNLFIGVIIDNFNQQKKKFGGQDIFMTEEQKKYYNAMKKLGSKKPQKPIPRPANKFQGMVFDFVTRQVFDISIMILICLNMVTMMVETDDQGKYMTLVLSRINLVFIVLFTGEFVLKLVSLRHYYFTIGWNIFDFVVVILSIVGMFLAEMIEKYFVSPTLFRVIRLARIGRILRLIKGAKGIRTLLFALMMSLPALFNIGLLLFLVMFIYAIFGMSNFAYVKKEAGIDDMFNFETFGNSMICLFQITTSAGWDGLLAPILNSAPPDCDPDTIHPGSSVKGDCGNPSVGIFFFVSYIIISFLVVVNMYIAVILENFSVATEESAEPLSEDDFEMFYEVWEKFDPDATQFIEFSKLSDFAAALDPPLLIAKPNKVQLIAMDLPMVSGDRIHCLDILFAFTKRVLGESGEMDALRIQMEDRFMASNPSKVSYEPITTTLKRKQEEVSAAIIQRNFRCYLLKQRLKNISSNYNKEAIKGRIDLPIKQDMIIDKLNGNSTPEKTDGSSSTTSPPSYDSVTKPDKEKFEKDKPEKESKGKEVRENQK

| Compound | pIC50 (hSCN3A) | pIC50 (hSCN9A) |
| --- | --- | --- |
| O=S(=O)(Nc1nccs1)c1ccc(Nc2nc(Cc3ccc(Cl)cc3)cs2)cc1 [Compound 91, 4-(4-(4-chlorobenzyl)thiazol-2-ylamino)-N-(thiazol-2-yl)benzenesulfonamide] | > 5.70 | > 5.70 |
| O=S(=O)(Nc1nccs1)c1ccc(Nc2cncc(C(c3ccccc3)c3ccccc3)n2)cc1 [Compound 92, 4-(6-benzhydrylpyrazin-2-ylamino)-N-(thiazol-2-yl)benzenesulfonamide] | > 5.70 | 5.00 to 5.70 |
| O=S(=O)(Nc1nccs1)c1ccc(Nc2cccc(C(c3ccccc3)c3ccccc3)n2)cc1 [Compound 93, 4-(6-benzhydrylpyridin-2-ylamino)-N-(thiazol-2-yl)benzenesulfonamide] | > 5.70 | < 6.00 |
| O=S(=O)(Nc1nccs1)c1ccc(Nc2nc(CCCOc3ccc(Cl)cc3)cs2)cc1 [Compound 94, 4-(4-(3-(4-chlorophenoxy)propyl)thiazol-2-ylamino)-N-(thiazol-2-yl)benzenesulfonamide] | > 5.70 | > 5.70 |
| O=S(=O)(Nc1nccs1)c1ccc(Nc2nc(COc3ccc(Cl)cc3Cl)cs2)cc1 [Compound 95, 4-(4-((2,4-dichlorophenoxy)methyl)thiazol-2-ylamino)-N-(thiazol-2-yl)benzenesulfonamide] | > 5.70 | > 5.70 |
| Cc1cc(Cl)ccc1OCc1csc(Nc2ccc(S(=O)(=O)Nc3nccs3)cc2)n1 [Compound 96, 4-(4-((4-chloro-2-methylphenoxy)methyl)thiazol-2-ylamino)-N-(thiazol-2-yl)benzenesulfonamide] | > 5.70 | > 5.70 |
| CC(C)(Oc1ccc(Cl)cc1)c1csc(Nc2ccc(S(=O)(=O)Nc3nccs3)cc2)n1 [Compound 97, 4-(4-(2-(4-chlorophenoxy)propan-2-yl)thiazol-2-ylamino)-N-(thiazol-2-yl)benzenesulfonamide] | > 5.70 | < 6.00 |
| O=S(=O)(Nc1nccs1)c1ccc(Nc2cncc(Cc3cc(F)cc(F)c3)n2)cc1 [Compound 98, 4-(6-(3,5-difluorobenzyl)pyrazin-2-ylamino)-N-(thiazol-2-yl)benzenesulfonamide] | > 5.70 | 5.00 to 5.70 |
| O=S(=O)(Nc1nccs1)c1ccc(Nc2nc3cc(Cl)ccc3[nH]2)cc1 [Compound 99, 4-(5-chloro-1H-benzo[d]imidazol-2-ylamino)-N-(thiazol-2-yl)benzenesulfonamide] | > 5.70 | 5.00 to 5.70 |
| Cn1c(Nc2ccc(S(=O)(=O)Nc3nccs3)cc2)nc2cc(Cl)ccc21 [Compound 100, 4-(5-chloro-1-methyl-1H-benzo[d]imidazol-2-ylamino)-N-(thiazol-2-yl)benzenesulfonamide] | > 5.70 | 5.00 to 5.70 |
| Cn1c(Nc2ccc(S(=O)(=O)Nc3nccs3)cc2)nc2ccc(Cl)cc21 [Compound 101, 4-(6-chloro-1-methyl-1H-benzo[d]imidazol-2-ylamino)-N-(thiazol-2-yl)benzenesulfonamide] | > 5.70 | 5.00 to 5.70 |
| O=S(=O)(Nc1ccccn1)c1ccc(Nc2nc(Cc3ccc(Cl)cc3)cs2)cc1 [Compound 103, 4-(4-(4-chlorobenzyl)thiazol-2-ylamino)-N-(pyridin-2-yl)benzenesulfonamide] | < 5.00 | < 6.00 |
| O=S(=O)(Nc1nccs1)c1ccc(Nc2ncc(S(=O)(=O)c3ccc(Cl)cc3)s2)cc1F [Compound 105, 4-(5-(4-chlorophenylsulfonyl)thiazol-2-ylamino)-2-fluoro-N-(thiazol-2-yl)benzenesulfonamide] | > 5.70 | < 5.00 |
| CC(C)(C)c1csc(Nc2ccc(S(=O)(=O)Nc3nccs3)cn2)n1 [Compound 106, 6-(4-tert-butylthiazol-2-ylamino)-N-(thiazol-2-yl)pyridine-3-sulfonamide] | 5.00 to 5.70 | < 6.00 |
| O=S(=O)(Nc1nccs1)c1ccc(Nc2nc(Cc3ccc(Cl)cc3)cs2)nc1 [Compound 107, 6-(4-(4-chlorobenzyl)thiazol-2-ylamino)-N-(thiazol-2-yl)pyridine-3-sulfonamide] | > 5.70 | 5.00 to 5.70 |
| Cc1cnc(NS(=O)(=O)c2ccc(Nc3nc(Cc4ccc(Cl)cc4)cs3)cc2F)s1 [Compound 108, 4-(4-(4-chlorobenzyl)thiazol-2-ylamino)-2-fluoro-N-(5-methylthiazol-2-yl)benzenesulfonamide] | 5.00 to 5.70 | 5.00 to 5.70 |
| Cc1csc(NS(=O)(=O)c2ccc(Nc3nc(Cc4ccc(Cl)cc4)cs3)cc2F)n1 [Compound 109, 4-(4-(4-chlorobenzyl)thiazol-2-ylamino)-2-fluoro-N-(4-methylthiazol-2-yl)benzenesulfonamide] | > 5.70 | 5.00 to 5.70 |

| Compound | pIC50 (hSCN3A) | pIC50 (hSCN9A) |
| --- | --- | --- |
| CC(C)(C)n1nc(Cc2ccc(Cl)cc2)cc1Nc1ccc(S(=O)(=O)Nc2ccccn2)cc1 [Compound 110, 4-(1-tert-butyl-3-(4-chlorobenzyl)-1H-pyrazol-5-ylamino)-N-(pyridin-2-yl)benzenesulfonamide] | > 5.70 | < 5.00 |
| CC(C)(C)n1nc(Cc2ccc(Cl)cc2)cc1Nc1ccc(S(=O)(=O)Nc2nncs2)cc1 [Compound 111, 4-(1-tert-butyl-3-(4-chlorobenzyl)-1H-pyrazol-5-ylamino)-N-(1,3,4-thiadiazol-2-yl)benzenesulfonamide] | > 5.70 | 5.00 to 5.70 |
| NC(=O)c1cnn(-c2ccc(F)c(Cl)c2)c1Nc1ccc(S(=O)(=O)Nc2nccs2)cc1 [Compound 112, 1-(3-chloro-4-fluorophenyl)-5-(4-(N-thiazol-2-ylsulfamoyl)phenylamino)-1H-pyrazole-4-carboxamide] | < 6.00 | < 6.00 |
| CC(C)(C)c1csc(Nc2ccc(S(=O)(=O)Nc3nccs3)c(C#N)c2)n1 [Compound 113, 4-(4-tert-butylthiazol-2-ylamino)-2-cyano-N-(thiazol-2-yl)benzenesulfonamide] | 5.00 to 5.70 | < 6.00 |
| O=S(=O)(Nc1nccs1)c1ccc(Nc2cc(Cc3ccc(Cl)cc3)n[nH]2)cc1F [Compound 115, 4-(3-(4-chlorobenzyl)-1H-pyrazol-5-ylamino)-2-fluoro-N-(thiazol-2-yl)benzenesulfonamide] | > 5.70 | > 5.70 |
| Cn1nc(C2(c3ccc(Cl)cc3)CC2)cc1Nc1ccc(S(=O)(=O)Nc2nccs2)cc1 [Compound 129, 4-(3-(1-(4-chlorophenyl)cyclopropyl)-1-methyl-1H-pyrazol-5-ylamino)-N-(thiazol-2-yl)benzenesulfonamide] | > 5.70 | > 5.70 |
| O=S(=O)(Nc1nccs1)c1ccc(Nc2cnn(CC(F)(F)F)c2)cc1F [Compound 130, 2-fluoro-N-(thiazol-2-yl)-4-(1-(2,2,2-trifluoroethyl)-1H-pyrazol-4-ylamino)benzenesulfonamide] | > 5.70 | 5.00 to 5.70 |
| Cn1nc(CC2CCCCC2)cc1Nc1ccc(S(=O)(=O)Nc2nccs2)c(F)c1 [Compound 133, 4-(3-(cyclohexylmethyl)-1-methyl-1H-pyrazol-5-ylamino)-2-fluoro-N-(thiazol-2-yl)benzenesulfonamide] | > 5.70 | > 5.70 |
| Cn1nc(CC2CCCCC2)cc1Nc1ccc(S(=O)(=O)Nc2nccs2)c(O)c1 [Compound 134, 4-(3-(cyclohexylmethyl)-1-methyl-1H-pyrazol-5-ylamino)-2-hydroxy-N-(thiazol-2-yl)benzenesulfonamide] | > 5.70 | > 5.70 |
| CC(C)c1cc(Nc2ccc(S(=O)(=O)Nc3nccs3)c(F)c2)n(-c2ccccc2)n1 [Compound 145, 2-fluoro-4-(3-isopropyl-1-phenyl-1H-pyrazol-5-ylamino)-N-(thiazol-2-yl)benzenesulfonamide] | > 5.70 | > 5.70 |
| Cc1cc(Nc2ccc(S(=O)(=O)Nc3nccs3)c(F)c2)n(-c2ccccc2C)n1 [Compound 146, 2-fluoro-4-(3-methyl-1-o-tolyl-1H-pyrazol-5-ylamino)-N-(thiazol-2-yl)benzenesulfonamide] | > 5.70 | > 5.70 |
| Cc1ccc(-n2nc(C)cc2Nc2ccc(S(=O)(=O)Nc3nccs3)c(F)c2)cc1 [Compound 147, 2-fluoro-4-(3-methyl-1-p-tolyl-1H-pyrazol-5-ylamino)-N-(thiazol-2-yl)benzenesulfonamide] | > 5.70 | > 5.70 |
| Cc1cc(Nc2ccc(S(=O)(=O)Nc3nccs3)c(F)c2)n(-c2ccccc2Cl)n1 [Compound 149, 4-(1-(2-chlorophenyl)-3-methyl-1H-pyrazol-5-ylamino)-2-fluoro-N-(thiazol-2-yl)benzenesulfonamide] | > 5.70 | > 5.70 |
| O=S(=O)(Nc1nccs1)c1ccc(Nc2cnn(Cc3ccc(C(F)(F)F)cc3)c2)cc1F [Compound 150, 2-fluoro-N-(thiazol-2-yl)-4-(1-(4-(trifluoromethyl)benzyl)-1H-pyrazol-4-ylamino)benzenesulfonamide] | > 5.70 | > 5.70 |
| O=S(=O)(Nc1nccs1)c1ccc(Nc2ccnn2-c2ccccc2)cc1 [Compound 151, 4-(1-phenyl-1H-pyrazol-5-ylamino)-N-(thiazol-2-yl)benzenesulfonamide] | > 5.70 | 5.00 to 5.70 |
| Cc1cc(Nc2ccc(S(=O)(=O)Nc3nccs3)c(F)c2)n(-c2cccc(Cl)c2)n1 [Compound 152, 4-(1-(3-chlorophenyl)-3-methyl-1H-pyrazol-5-ylamino)-2-fluoro-N-(thiazol-2-yl)benzenesulfonamide] | > 5.70 | > 5.70 |
| Cn1nc(-c2ccc(Cl)cc2)cc1Nc1ccc(S(=O)(=O)Nc2nccs2)c(F)c1 [Compound 153, 4-(3-(4-chlorophenyl)-1-methyl-1H-pyrazol-5-ylamino)-2-fluoro-N-(thiazol-2-yl)benzenesulfonamide] | > 5.70 | > 5.70 |
